Measured values: patent US10442803B2, “Tricyclic heterocycles as bet protein inhibitors” (Incyte Corporation, priority 2013, dated 2019)

Test system: KMS.12.BM cells
Test: KMS.12.BM cell viability assay
Type: cell-based
Details: 72 h; KMS.12.BM human myeloma cells, 3 days, Cell Titer-GLO ATP quantitation; read-out: KMS cellular IC50
Outline: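 Human myeloma KMS.12.BM cells, 5000 per well in RPMI/10% FBS, exposed 3 days to compound concentration range. Viability from ATP-based Cell Titer-GLO luminescence; IC50 derived.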

Structure (SMILES)	IC50 [nM]
Cc1cc2c(cc(NCC3CN(C(=O)OC(C)(C)C)C3)c3nnc(C)n32)n1Cc1ccccc1 [Example 243, tert-Butyl 3-((6-benzyl-1,7-dimethyl-6H-pyrrolo[2,3-e][1,2,4]triazolo[4,3-a]pyridin-4-ylamino)methyl)azetidine-1-carboxylate]	1000 to 10000
Cc1cc2c(cc(NC3CN(C(=O)OC(C)(C)C)C3)c3nnc(C)n32)n1Cc1ccccc1 [Example 244, tert-Butyl 3-(6-benzyl-1,7-dimethyl-6H-pyrrolo[2,3-e][1,2,4]triazolo[4,3-a]pyridin-4-ylamino)azetidine-1-carboxylate]	≤ 1000
Cc1cc2c(cc(NCCCN(C)C)c3nnc(C)n32)n1Cc1ccccc1 [Example 245, N1-(6-Benzyl-1,7-dimethyl-6H-pyrrolo[2,3-e][1,2,4]triazolo[4,3-a]pyridin-4-yl)-N3,N3-dimethylpropane-1,3-diamine]	≤ 1000
Cc1cc2c(cc(NCCN(C)C)c3nnc(C)n32)n1Cc1ccccc1 [Example 246, N1-(6-Benzyl-1,7-dimethyl-6H-pyrrolo[2,3-e][1,2,4]triazolo[4,3-a]pyridin-4-yl)-N2,N2-dimethylethane-1,2-diamine]	≤ 1000
Cc1cc2c(cc(N[C@H]3C[C@H](O)C3)c3nnc(C)n32)n1Cc1ccccc1 [Example 247, trans-3-(6-Benzyl-1,7-dimethyl-6H-pyrrolo[2,3-e][1,2,4]triazolo[4,3-a]pyridin-4-ylamino)cyclobutanol]	≤ 1000
Cc1cc2c(cc(NC(=O)OC(C)(C)C)c3nnc(C)n32)n1Cc1ccccc1 [Example 248, tert-Butyl 6-benzyl-1,7-dimethyl-6H-pyrrolo[2,3-e][1,2,4]triazolo[4,3-a]pyridin-4-ylcarbamate]	≤ 1000
CCNC(=O)Nc1cc2c(cc(C)n2Cc2ccccc2)n2c(C)nnc12 [Example 249, 1-(6-Benzyl-1,7-dimethyl-6H-pyrrolo[2,3-e][1,2,4]triazolo[4,3-a]pyridin-4-yl)-3-ethylurea]	≤ 1000
Cc1cc2c(cc(NC(=O)NC(C)C)c3nnc(C)n32)n1Cc1ccccc1 [Example 250, 1-(6-Benzyl-1,7-dimethyl-6H-pyrrolo[2,3-e][1,2,4]triazolo[4,3-a]pyridin-4-yl)-3-isopropylurea]	≤ 1000
Cc1cc2c(cc(NC(=O)N(C)C)c3nnc(C)n32)n1Cc1ccccc1 [Example 251, 3-(6-Benzyl-1,7-dimethyl-6H-pyrrolo[2,3-e][1,2,4]triazolo[4,3-a]pyridin-4-yl)-1,1-dimethylurea]	≤ 1000
Cc1cc2c(cc(NC(N)=O)c3nnc(C)n32)n1Cc1ccccc1 [Example 252, 1-(6-Benzyl-1,7-dimethyl-6H-pyrrolo[2,3-e][1,2,4]triazolo[4,3-a]pyridin-4-yl)urea]	≤ 1000
Cc1cc2c(cc(Nc3ncc[nH]3)c3nnc(C)n32)n1Cc1ccccc1 [Example 253, 6-Benzyl-N-(1H-imidazol-2-yl)-1,7-dimethyl-6H-pyrrolo[2,3-e][1,2,4]triazolo[4,3-a]pyridin-4-amine]	≤ 1000
Cc1cc2c(cc(NC(N)=O)c3nnc(C)n32)n1Cc1c(F)cccc1F [Example 254, 1-(6-(2,6-Difluorobenzyl)-1,7-dimethyl-6H-pyrrolo[2,3-e][1,2,4]triazolo[4,3-a]pyridin-4-yl)urea]	≤ 1000
Cc1cc2c(cc(Nc3ccncc3)c3nnc(C)n32)n1Cc1ccccc1 [Example 255, 6-Benzyl-1,7-dimethyl-N-(pyridin-4-yl)-6H-pyrrolo[2,3-e][1,2,4]triazolo[4,3-a]pyridin-4-amine]	≤ 1000
Cc1cc2c(cc(Nc3cccnc3)c3nnc(C)n32)n1Cc1ccccc1 [Example 256, 6-Benzyl-1,7-dimethyl-N-(pyridin-3-yl)-6H-pyrrolo[2,3-e][1,2,4]triazolo[4,3-a]pyridin-4-amine]	≤ 1000
Cc1cc2c(cc(NCCCN)c3nnc(C)n32)n1Cc1ccccc1 [Example 257, N1-(6-Benzyl-1,7-dimethyl-6H-pyrrolo[2,3-e][1,2,4]triazolo[4,3-a]pyridin-4-yl)propane-1,3-diamine]	≤ 1000
